Experimental data reported in US7101841B2, “Carbohydrate-specific peptides which have a strong affinity and preparations method thereof” (Korea Institute of Science and Technology, priority 2001, dated 2006).

What was measured:
[1] = system: sLeX; test: Peptide phage library biopanning against sLeX-BSA; format: binding; settings: after three rounds of biopanning
Procedure: As described above, in order to obtain molecules having strong binding capacity to carbohydrates using repetitive structure of peptide, sialyl Lewis X (sLeX) existing in tumor cells or inflammation response cells was selected as a target, and a peptide binding to the sLeX well was selected by using peptide phage library and biopanning method. Particularly, sLeX-BSA(Oxford Glycoscience) was added into 0.1 M NaHCO3(pH 8.6) buffer solution until the concentration reached to 100 μg/ml. 150 μl of the above solution(sLeX-BSA 0.1 M NaHCO3) was loaded into one well of 96-well plate, and 150 μl of BSA 0.1 M NaHCO3(pH 8.6) was also loaded into the other well. The well plate was shaken to soak completely, and left for overnight at 4° C. The solution in 96-well plate was washed, followed by adding 200 μl of blocking solution(0.1 M ethanol amine, 0.1 M NaHCO3, pH 8.6) into the wells, and then the plate was left for overnight at 4° C. After blocking solution was removed from the 96-well plate, the plate was washed with 200 μl of TBS-T(50 mM Tris-HCl, pH 7.5, 150 mM NaCl, 0.1% [v/v] Tween-20). […]
180 μl of extraction solution was loaded into 3 ml of ER2537 culture solution(OD600=0.2–0.3) and cultured for 4.5 hours at 37° C. while shaking with 250 rpm. […] The amplified phage obtained above was diluted with various concentrations, and the proper concentration was calculated as follows. […]

[2] = biological target: sLeX; test: BIAcore measurement of binding capacity of peptides on sLeX-BSA fixed CM5 chip
Procedure: To measure the binding capacity of peptides, BIAcore was used. CM5 made by gold and protruded with CM-dextran layer and carboxylic acid group was used as a chip. BSA (Oxford Glyco Science, USA) binding with sLeX was used as a ligand for fixing.
At first, chip surface was stabilized with 100 mM HEPES buffer solution (pH 8.0), and activated with the mixture of 0.4 M EDC (1-ethyl-3-[3′-dimethylaminopropyl]carbodiimide) and 0.1 M NHS (N-hydroxysuccunimide). And then, sodium acetate buffer(10 mM, pH 4.0) containing 0.05 mg/ml of sLeX-BSA or BSA was injected and fixed onto the surface of CM5 chip until the value of RU reached to 6,000. Chip surface remaining active state was substituted with 1.0 M ethanolamine. Target molecules were bound to CM5 chip, and binding buffer (0.01 M HEPES, […], 3 mM EDTA, 0.005% polysorbate 20, pH 7.4) was flowed on the chip surface for equilibration, and finally, bindng capacity was determined by flowing binding buffer containing peptides according to the concentrations. At that time, peptides were combined with their targets with different speed and slope according to the affinity of peptides and target molecules and the affinity between target molecules was measured from the each result. […]

Row | Substance | binding capacity to sLeX relative to other selected peptides [1] | Kd ([2]; BIAcore, sLeX-BSA fixed on CM5 chip, read-out: Kp against sLeX) | strength of binding converted into the height of sensorgram ([2]; peptide flowed at 62.5 μM, sLeX-BSA fixed chip, FIG. 1)
1 | peptide represented by the SEQ. ID NO.1: peptide composed of 12 amino acids selected by phage display for binding to sLeX (AHWIPRYSSPAT; synthetic peptide which have a strong affinity to carbohydrate) | better than that of the other peptides | – | –
2 | AHWIPRYSSPAT [monomer] | – | 25.4 mM | 16 RU
